Measurements published in patent US20100076015A1, “Aminopyridine Derivatives” (VANTIA LIMITED, priority 2008, published 2010).

Target: T1, Human KLK1 (Homo sapiens, UniProt P06870)
T1 construct: purchased Callbiochem (Calbiochem)
Assay: Determination of the IC50 for KLK1 (fluorogenic substrate H-DVal-Leu-Arg-AFC)
Type: biochemical
Conditions: 37° C.
Outline: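 IC50 values reflect residual human KLK1 activity, read as initial rate from optical absorbance change at 410 nm. Incubations ran at 37° C with H-DVal-Leu-Arg-AFC as substrate across a compound concentration series.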

T1 sequence (P06870 25-262): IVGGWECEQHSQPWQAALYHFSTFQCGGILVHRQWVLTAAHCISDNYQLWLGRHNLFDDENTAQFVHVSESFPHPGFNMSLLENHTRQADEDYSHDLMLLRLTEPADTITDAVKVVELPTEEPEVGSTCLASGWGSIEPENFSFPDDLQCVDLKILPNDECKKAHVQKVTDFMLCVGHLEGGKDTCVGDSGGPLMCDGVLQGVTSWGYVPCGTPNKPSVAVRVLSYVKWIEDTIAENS

Row | Structure (SMILES) | IC50 [nM]
1 | Nc1ccc(CNC(=O)[C@H](Cc2ccc(F)c(F)c2)NC(=O)CN2CCCC2)cn1 [Example 366, (S)—N-(6-Amino-pyridin-3-ylmethyl)-3-(3,4-difluoro-phenyl)-2-(2-pyrrolidin-1-yl-acetylamino)-propionamide] | 54.5
2 | CCN(C)[C@@H](C)C(=O)N[C@@H](Cc1ccc(F)cc1)C(=O)NCc1ccc(N)nc1 [Example 367, (S)—N-[(S)-1-[(6-Amino-pyridin-3-ylmethyl)-carbamoyl]-2-(4-fluoro-phenyl)-ethyl]-2-(ethyl-methyl-amino)-propionamide] | 10.8
3 | CCCN(C)[C@@H](C)C(=O)N[C@@H](Cc1ccc(F)cc1)C(=O)NCc1ccc(N)nc1 [Example 368, (S)—N-[(S)-1-[(6-Amino-pyridin-3-ylmethyl)-carbamoyl]-2-(4-fluoro-phenyl)-ethyl]-2-(methyl-propyl-amino)-propionamide] | 19.4
4 | CCCCN(C)[C@@H](C)C(=O)N[C@@H](Cc1ccc(F)cc1)C(=O)NCc1ccc(N)nc1 [Example 369, (S)—N-[(S)-1-[(6-Amino-pyridin-3-ylmethyl)-carbamoyl]-2-(4-fluoro-phenyl)-ethyl]-2-(butyl-methyl-amino)-propionamide] | 29.1
5 | CC(C)[C@@H](C(=O)N[C@@H](Cc1ccc(F)cc1)C(=O)NCc1ccc(N)nc1)N(C)C(C)C [Example 370, (S)—N-[(S)-1-[(6-Amino-pyridin-3-ylmethyl)-carbamoyl]-2-(4-fluoro-phenyl)-ethyl]-2-(isopropyl-methyl-amino)-3-methyl-butyramide] | 11.3
6 | CCC(C)[C@@H](C(=O)N[C@@H](Cc1ccc(F)cc1)C(=O)NCc1ccc(N)nc1)N(C)C(C)C (stereo partly drawn) [Example 371, (S)-2-(Isopropyl-methyl-amino)-3-methyl-pentanoic acid [(S)-1-[(6-amino-pyridin-3-ylmethyl)-carbamoyl]-2-(4-fluoro-phenyl)-ethyl]-amide] | 7.3
7 | CC(C)N(C(C)C)[C@@H](C)C(=O)N[C@@H](Cc1ccc(F)cc1)C(=O)NCc1ccc(N)nc1 [Example 372, (S)—N-[(S)-1-[(6-Amino-pyridin-3-ylmethyl)-carbamoyl]-2-(4-fluoro-phenyl)-ethyl]-2-diisopropylamino-propionamide] | 34.3
8 | CC(C)N(C)[C@@H](Cc1ccccc1)C(=O)N[C@@H](Cc1ccc(F)cc1)C(=O)NCc1ccc(N)nc1 [Example 373, (S)—N-[(S)-1-[(6-Amino-pyridin-3-ylmethyl)-carbamoyl]-2-(4-fluoro-phenyl)-ethyl]-2-(isopropyl-methyl-amino)-3-phenyl-propionamide] | 25.7
9 | C[C@H](C(=O)N[C@@H](Cc1ccc(F)cc1)C(=O)NCc1ccc(N)nc1)N1CCCCC1 [Example 374, (R)—N-[(S)-1-[(6-Amino-pyridin-3-ylmethyl)-carbamoyl]-2-(4-fluoro-phenyl)-ethyl]-2-piperidin-1-yl-propionamide] | 52.7
10 | C[C@@H](C(=O)N[C@@H](Cc1ccc(F)cc1)C(=O)NCc1ccc(N)nc1)N1CCCCC1 [Example 375, (S)—N-[(S)-1-[(6-Amino-pyridin-3-ylmethyl)-carbamoyl]-2-(4-fluoro-phenyl)-ethyl]-2-piperidin-1-yl-propionamide] | 4.9

Results, then the compound that gave them:

Row | IC50 [nM] | Structure (SMILES)
11 | 13.7 | CCN(C)[C@@H](Cc1ccccc1)C(=O)N[C@@H](Cc1ccc(F)c(F)c1)C(=O)NCc1ccc(N)nc1 [Example 352, (S)—N-[(S)-1-[(6-Amino-pyridin-3-ylmethyl)-carbamoyl]-2-(3,4-difluoro-phenyl)-ethyl]-2-(ethyl-methyl-amino)-3-phenyl-propionamide]
12 | 7.8 | CCC(C)[C@@H](C(=O)N[C@@H](Cc1ccc(F)c(F)c1)C(=O)NCc1ccc(N)nc1)N(C)C(C)C (stereo partly drawn) [Example 353, (S)-2-(Isopropyl-methyl-amino)-3-methyl-pentanoic acid [(S)-1-[(6-amino-pyridin-3-ylmethyl)-carbamoyl]-2-(3,4-difluoro-phenyl)-ethyl]-amide]
13 | 11.6 | CC(C(=O)N[C@@H](Cc1ccc(F)c(F)c1)C(=O)NCc1ccc(N)nc1)N1CCCCC1 (stereo partly drawn) [Example 354, N-[(S)-1-[(6-Amino-pyridin-3-ylmethyl)-carbamoyl]-2-(3,4-difluoro-phenyl)-ethyl]-2-piperidin-1-yl-propionamide]
14 | 3.8 | C[C@H](C(=O)N[C@@H](Cc1ccc(F)c(F)c1)C(=O)NCc1ccc(N)nc1)N1CCCC1 [Example 356, (R)—N-[(S)-1-[(6-Amino-pyridin-3-ylmethyl)-carbamoyl]-2-(3,4-difluoro-phenyl)-ethyl]-2-pyrrolidin-1-yl-propionamide]
15 | 3 | C[C@@H](C(=O)N[C@@H](Cc1ccc(F)c(F)c1)C(=O)NCc1ccc(N)nc1)N1CCCC1 [Example 357, (S)—N-[(S)-1-[(6-Amino-pyridin-3-ylmethyl)-carbamoyl]-2-(3,4-difluoro-phenyl)-ethyl]-2-pyrrolidin-1-yl-propionamide]
16 | 10.4 | CCC(C)[C@H](C(=O)N[C@@H](Cc1ccc(F)c(F)c1)C(=O)NCc1ccc(N)nc1)N(C)C (stereo partly drawn) [Example 358, (R)-2-Dimethylamino-3-methyl-pentanoic acid [(S)-1-[(6-amino-pyridin-3-ylmethyl)-carbamoyl]-2-(3,4-difluoro-phenyl)-ethyl]-amide]
17 | 5 | CC(C)[C@H](C(=O)N[C@@H](Cc1ccc(F)c(F)c1)C(=O)NCc1ccc(N)nc1)N(C)C [Example 359, (R)—N-[(S)-1-[(6-Amino-pyridin-3-ylmethyl)-carbamoyl]-2-(3,4-difluoro-phenyl)-ethyl]-2-dimethylamino-3-methyl-butyramide]
18 | 20.2 | CC(C)N(C)[C@@H](CO)C(=O)N[C@@H](Cc1ccc(F)c(F)c1)C(=O)NCc1ccc(N)nc1 [Example 360, (S)—N-[(S)-1-[(6-Amino-pyridin-3-ylmethyl)-carbamoyl]-2-(3,4-difluoro-phenyl)-ethyl]-3-hydroxy-2-(isopropyl-methyl-amino)-propionamide]
19 | 55.6 | CCN(C)[C@@H](CO)C(=O)N[C@@H](Cc1ccc(F)c(F)c1)C(=O)NCc1ccc(N)nc1 [Example 361, (S)—N-[(S)-1-[(6-Amino-pyridin-3-ylmethyl)-carbamoyl]-2-(3,4-difluoro-phenyl)-ethyl]-2-(ethyl-methyl-amino)-3-hydroxy-propionamide]
20 | 25.9 | CCN(CC)[C@@H](CO)C(=O)N[C@@H](Cc1ccc(F)c(F)c1)C(=O)NCc1ccc(N)nc1 [Example 362, (S)—N-[(S)-1-[(6-Amino-pyridin-3-ylmethyl)-carbamoyl]-2-(3,4-difluoro-phenyl)-ethyl]-2-diethylamino-3-hydroxy-propionamide]
21 | 84.4 | CCN(CC)[C@H](CO)C(=O)N[C@@H](Cc1ccc(F)c(F)c1)C(=O)NCc1ccc(N)nc1 [Example 363, (R)—N-[(S)-1-[(6-Amino-pyridin-3-ylmethyl)-carbamoyl]-2-(3,4-difluoro-phenyl)-ethyl]-2-diethylamino-3-hydroxy-propionamide]
22 | 43.7 | CCN(CC)[C@@H](CC(=O)OC)C(=O)N[C@@H](Cc1ccc(F)c(F)c1)C(=O)NCc1ccc(N)nc1 [Example 364, (S)—N-[(S)-1-[(6-Amino-pyridin-3-ylmethyl)-carbamoyl]-2-(3,4-difluoro-phenyl)-ethyl]-3-diethylamino-succinamic acid methyl ester]
